Source: patent publication US5770563A, “Heparin- and sulfatide binding peptides from the type I repeats of human thrombospondin and conjugates thereof” (The United States of America as represented by the …, priority 1995, dated 1998)
Like-named read-outs stand apart in the source and are kept apart here. Square brackets hold non-standard residues; d marks the D form. Peptide text beside a SMILES is read from it.

What was measured:
[1] = system: laminin binding to heparin; test: Inhibition of 125I-laminin binding to heparin-BSA; parameters: species or system mouse; settings: for IC50: Table 2, free peptide
Method: (§1) The peptides were tested as inhibitors of laminin, thrombospondin or apolipoprotein E binding to a heparin-bovine serum albumen conjugate or to a sulfatide in a solid phase assay essentially following the procedure described in Zabrenetzky et al., Cancer Res., Vol. 50, pages 5937-5942 (1990). Sulfatide (0.2 μg/well for thrombospondin binding, 0.6 μg/well for laminin binding) was immobilized in a mixture of 50 ng of phosphatidyl choline, and 30 ng of cholesterol on polyvinyl chloride microtiter plates. Heparin-BSA (0.2 μg/well) was absorbed onto polyvinyl chloride microtiter plate wells by incubation of 50 μl of Dulbecco's PBS for 2 h at 37°. The wells were emptied and filled with 50 mM tris, pH 7.8 containing 150 mM NaCl, 1 mM CaCl2, 0.025% NaN3, and 1% BSA. After 30 minutes, the wells were emptied and 30 μl of various concentrations of potential inhibitory peptides diluted in the same buffer or buffer alone and 30 μl of ^125 I-labeled laminin, thrombospondin or apolipoprotein E (0.2 μg/ml) were added to each well. After 3 hours at 4°, the wells were washed 6 times with 0.15M NaCl, cut from the plate and the bound radioactivity counted. FIGS. 1A-B and 2A-B show the level of thrombospondin binding to sulfatide and heparin-BSA, respectively, in the presence of increasing concetrations of the peptides listed. FIGS. 3 and 4A-B show the level of laminin binding to sulfatide and heparin-BSA, respectively, in the presence of increasing concentrations of the listed peptides.

[2] = system: thrombospondin binding to heparin; test: Inhibition of 125I-thrombospondin binding to immobilized heparin-BSA; parameters: species or system human; settings: for inhibition of thrombospondin binding to heparin, in words: free peptide
Method: as §1
Microtiter plate wells were coated with heparin-BSA. Heparin-BSA (0.2 μg/well) was adsorbed by incubation in 50 μl of Dulbecco's PBS for 2 h at 370. The wells were emptied, filled with tris-BSA, and incubated for 30 to 60 minutes. The buffer was removed, and labelled thrombospondin was added and incubated in the wells for 3 h at 40. The wells were emptied and washed 4 times with saline. The bottoms of the wells were cut from the plate and counted to quantify thrombospondin binding. Inhibition of thrombospondin binding was determined using peptides diluted in 30 μl of 50 mM tris buffer, pH 7.8, containing 110 mM NaCl, 1 mM CaCl2, 0.025% NaN3, and 1% BSA or buffer alone and 30 μl of ^125 I-labeled TSP (0.2 μg/ml).

[3] = biological target: basic fibroblast growth factor (FGF-2) binding to heparin; test: Inhibition of 125I-bFGF binding to heparin-BSA conjugate
Method: Binding of ^125 I-bFGF to heparin was determined using an immobilized heparin-BSA conjugate as previously described (Guo, et al. (1992) Proc. Nat'l Acad. Sci. 89:3040-3044). ^125 I-bFGF, prepared as described by Neufeld, et al, (1985), J. Biol. Chem. 260:13860-13868, was added described above, and incubated for 2 hours at 25° C. Bound radioactivity was determined after washing and cutting the wells from the plate. FIGS. 40A, B and C show the inhibition of ^125 I-bFGF binding to heparin by a number of TSP peptide analogs.

[4] = biological target: laminin binding to sulfatide; test: Inhibition of 125I-laminin binding to sulfatide; parameters: species or system mouse; settings: Table 2, free peptide
Method: as §1

[5] = biological target: thrombospondin binding to sulfatide; test: Inhibition of 125I-thrombospondin binding to sulfatide; parameters: species or system human; settings: Table 1, free peptide
Method: as §1

[6] = biological target: apolipoprotein E binding to heparin; test: Inhibition of 125I-apolipoprotein E binding to heparin-BSA; settings: Table 2, free peptide; read-out: IC50 Apo E Binding to Heparin
Method: as §1

[7] = system: MDA MB435 breast carcinoma cells; test: MDA MB435 human breast carcinoma cell proliferation; type: cell-based
Method: Human breast carcinoma cells MDA MB435 (American Type Culture Collection) were grown in RPMI 1640 medium containing 10% fetal calf serum. Proliferation was determined as described in FIG. 18 and 44A, B and C.
Human breast carcinoma cells MDA MB435 (American Type Culture Collection) were grown in RPMI 1640 medium containing 10% fetal calf serum. Proliferation was determined in the presence of 0.5% fetal calf serum and bFGF as described in FIG. 19.

AIDS-KS cells = test: AIDS-KS cell chemotaxis, modified Boyden chamber; type: cell-based, human; settings: added in the lower well
Method: Directed migration (chemotaxis) and general migration (chemokinesis) of AIDS-KS cells in culture was measured by the modified Boyden chamber assay using fibronectin coated […] Nucleopore filters as previously described. In brief, the AIDS-KS cells, were trypsinized then resuspended in RPMI 1640 containing […] (GIBCO-BRL) and 20% activated lymphocyte conditioned medium. The trypsinized cells were allowed to recover in suspension for 2 hours, then the cells were recovered by centrifugation and resuspended in RPMI 1640 containing 0.1% BS at 5×10^5 cells/ml prior to adding 100 μl to the upper wells in the chemotaxis chamber. Migration to BSA (0.1%) and OSM was performed in the presence of the indicated concentrations of TSP, and TSP peptide-FICOLL conjugates. After 3 hours incubation at 37° C. filters were stained with Diff Quick (Merz-Dade, Dudingen, Switzerland), and the migrated cells in ten high-power fields were counted. The values are triplicate determinations and the bars indicate standard deviations, n=3.

[8] = L-forward peptides, read-out: IC50 Inhibitory Activity
[9] = retro-inverso peptides, free, read-out: IC50 Inhibitory Activity, Free Peptide
[10] = retro-inverso peptides, read-out: IC50 for Inhibition of Binding
[11] = Table 1, free peptide, read-out: IC50 Heparin Binding, inhibition of 125I-thrombospondin binding

Row | IC50 [4] | IC50 [1] | IC50 [2, 11] | IC50 [5] | IC50 [6] | Molecule | further results
1 |  |  |  |  |  | NCC(=O)NCC(=O)N[C@@H](Cc1c[nH]c2ccccc12)C(=O)N[C@@H](CO)C(=O)N[C@@H](Cc1c[nH]cn1)C(=O)N[C@@H](Cc1c[nH]c2ccccc12)C(=O)N[C@@H](CO)C(=O)N1CCC[C@H]1C(=O)N[C@@H](Cc1c[nH]c2ccccc12)C(=O)N[C@@H](CO)C(=O)N[C@@H](CO)C(=O)O [Peptide 256, GGWSHWSPWSS] (H-GGWSHWSPWSS-OH) | inhibition of laminin binding, in words ([1]; free peptide): increased activity; inhibition of thrombospondin binding to heparin, in words [2]: decreased activity; IC50 [3, 8]: > 40 µM
2 |  |  |  |  |  | CC(=O)N[C@H](CS)C(=O)N[C@H](CO)C(=O)N[C@H](CO)C(=O)N[C@H](Cc1c[nH]c2ccccc12)C(=O)N1CCC[C@@H]1C(=O)N[C@H](CO)C(=O)N[C@H](Cc1c[nH]c2ccccc12)C(=O)N[C@H](Cc1c[nH]cn1)C(=O)N[C@H](CO)C(=O)N[C@H](Cc1c[nH]c2ccccc12)C(=O)NCC(=O)NCC(=O)N[C@H](C)C(=O)N[C@H](CCC(N)=O)C(=O)N[C@H](CCCCN)C(=O)N[C@H](C)C(=O)N[C@H](CCCNC(=N)N)C(=O)N[C@H](CCCCN)C(N)=O [Peptide 476, ri-amKRAKQAGGWSHWSPWSSCac] (Ac-[dC][dS][dS][dW][dP][dS][dW][dH][dS][dW]GG[dA][dQ][dK][dA][dR][dK]-NH2) | IC50 [2, 9]: 0.03 µM; IC50 [3, 10]: 0.22 µM
3 |  |  |  |  |  | CC(=O)N[C@H](CS)C(=O)N[C@H](CO)C(=O)N[C@H](CO)C(=O)N[C@H](Cc1c[nH]c2ccccc12)C(=O)N1CCC[C@@H]1C(=O)N[C@H](CO)C(=O)N[C@H](Cc1c[nH]c2ccccc12)C(=O)N[C@H](Cc1c[nH]cn1)C(=O)N[C@H](CO)C(=O)N[C@H](Cc1c[nH]c2ccccc12)C(=O)NCC(=O)NCC(=O)N[C@H](CC(=O)O)C(=O)N[C@H](CCC(N)=O)C(=O)N[C@H](CCCCN)C(=O)N[C@H](C)C(=O)N[C@H](CCCNC(=N)N)C(=O)N[C@H](CCCCN)C(N)=O [Peptide 474, ri-amKRAKQDGGWSHWSPWSSCac] (Ac-[dC][dS][dS][dW][dP][dS][dW][dH][dS][dW]GG[dD][dQ][dK][dA][dR][dK]-NH2) | IC50 [2, 9]: 0.1 µM; IC50 [3, 10]: 0.95 µM
4 | 35 µM | 15 µM | 8.5 µM | 27 µM | 52 µM | CC[C@H](C)[C@H](NC(=O)[C@H](CC(=O)O)NC(=O)[C@H](Cc1c[nH]c2ccccc12)NC(=O)[C@@H]1CCCN1C(=O)[C@H](CO)NC(=O)[C@H](Cc1c[nH]c2ccccc12)NC(=O)[C@@H]1CCCN1C(=O)CN)C(=O)N[C@@H](CS)C(=O)N[C@@H](CO)C(=O)N[C@H](C(=O)N[C@H](C(=O)O)[C@@H](C)O)C(C)C [Peptide 186, GPWSPWDICSVT] (H-GPWSPWDICSVT-OH) | 
5 | 50 µM | 34 µM | 35 µM | 34 µM | 180 µM | CC(C)[C@H](NC(=O)[C@H](CO)NC(=O)[C@H](CS)NC(=O)[C@H](CO)NC(=O)[C@H](CO)NC(=O)[C@H](Cc1c[nH]c2ccccc12)NC(=O)[C@@H]1CCCN1C(=O)[C@H](CO)NC(=O)[C@@H](N)Cc1c[nH]c2ccccc12)C(=O)N[C@H](C(=O)O)[C@@H](C)O [Peptide 241, WSPWSSCSVT] (H-WSPWSSCSVT-OH) | 
6 |  |  |  |  |  | CC(=O)N[C@@H](CCCCN)C(=O)N[C@@H](CCCNC(=N)N)C(=O)N[C@@H](C)C(=O)N[C@@H](CCCCN)C(=O)N[C@@H](CCC(N)=O)C(=O)N[C@@H](C)C(=O)NCC(=O)NCC(=O)N[C@@H](Cc1c[nH]c2ccccc12)C(=O)N[C@@H](CO)C(=O)N[C@@H](Cc1c[nH]cn1)C(=O)N[C@@H](Cc1c[nH]c2ccccc12)C(=O)N[C@@H](C)C(=O)N[C@@H](C)C(=O)N[C@@H](CS)C(N)=O [acKRAKQAGGWSHWAACam] (Ac-KRAKQAGGWSHWAAC-NH2) | IC50 ([2]; L-forward peptides, free, read-out: IC50 Inhibitory Activity, Free Peptide): 0.045 µM; IC50 [3, 8]: 0.41 µM
7 |  |  |  |  |  | CC(=O)N[C@H](CS)C(=O)N[C@H](CO)C(=O)N[C@H](CO)C(=O)N[C@H](C)C(=O)N1CCC[C@@H]1C(=O)N[C@H](CO)C(=O)N[C@H](C)C(=O)N[C@H](Cc1c[nH]cn1)C(=O)N[C@H](CO)C(=O)N[C@H](C)C(=O)NCC(=O)NCC(=O)N[C@H](CC(=O)O)C(=O)N[C@H](CCC(N)=O)C(=O)N[C@H](CCCCN)C(=O)N[C@H](Cc1ccccc1)C(=O)N[C@H](CCCNC(=N)N)C(=O)N[C@H](CCCCN)C(N)=O [Peptide 475, ri-amKRFKQDGGASHASPASSCac] (Ac-[dC][dS][dS][dA][dP][dS][dA][dH][dS][dA]GG[dD][dQ][dK][dF][dR][dK]-NH2) | IC50 [2, 9]: 10 µM; IC50 [3, 10]: > 20 µM
8 |  | > 200 µM | > 200 µM | > 200 µM | > 200 µM | C[C@H](NC(=O)[C@H](Cc1c[nH]cn1)NC(=O)[C@@H](N)CO)C(=O)N[C@@H](CO)C(=O)N1CCC[C@H]1C(=O)N[C@@H](C)C(=O)N[C@@H](CO)C(=O)N[C@@H](CO)C(=O)O [Peptide 244, SHASPASS] (H-SHASPASS-OH) | fold less active than the natural sequence SHWSPWSS ([2]; Trp replaced by Ala): more than 100 fold
9 | 100 µM | 100 µM | 66 µM | 100 µM | 150 µM | N[C@@H](Cc1c[nH]c2ccccc12)C(=O)N[C@@H](CO)C(=O)N1CCC[C@H]1C(=O)N[C@@H](Cc1c[nH]c2ccccc12)C(=O)N[C@@H](CO)C(=O)N[C@@H](CO)C(=O)N[C@@H](CS)C(=O)N[C@@H](CO)C(=O)O [Peptide 240, WSPWSSCS] (H-WSPWSSCS-OH) | 
10 | 12 µM | 11 µM | 5.2 µM | 10 µM | 250 µM | N[C@@H](CO)C(=O)N[C@@H](Cc1c[nH]cn1)C(=O)N[C@@H](Cc1c[nH]c2ccccc12)C(=O)N[C@@H](CO)C(=O)N1CCC[C@H]1C(=O)N[C@@H](Cc1c[nH]c2ccccc12)C(=O)N[C@@H](CO)C(=O)N[C@@H](CO)C(=O)O [Peptide 239, SHWSPWSS] (H-SHWSPWSS-OH) | inhibition of thrombospondin binding to heparin, in words [2]: more active than the intact dodecapeptide
11 |  |  |  |  |  | KRFKQDGGWSHWSPWSSC [Peptide 364] | inhibition of MDA435 proliferation, in words ([7]; FICOLL conjugate): strongly inhibited proliferation; fold less active than native thrombospondin ([7]; from dose response curves, 0.5% fetal calf serum and bFGF): approximately 10 fold; activity relative to native thrombospondin on a subunit molar basis ([7]; subunit molar basis): about three-fold less active
12 |  |  |  |  |  | oncostatin M: growth factor, chemoattractant for AIDS-KS cells (protein, UniProt P13725 26-221, looked up) Oncostatin-M: AAIGSCSKEYRVLLGQLQKQTDLMQDTSRLLDPYIRIQGLDVPKLREHCRERPGAFPSEETLRGLGRRGFLQTLNATLGCVLHRLADLEQRLPKAQDLERSGLNIEDLEKLQMARPNILGLRNNIYCMAQLLDNSDTAEPTKAGRGASQPPTPTPASDAFQRKLEGCRFLHGYHRFMHSVGRVFSKWGESPNRSRR | stimulation of AIDS-KS cell motility (AIDS-KS cells): simulated motility
